Values of other authors, collected in patent US12558353B2 (CELLTAXIS, LLC, priority 2018, dated 2026).
Where two headings read alike, the source gives them in different places.

Columns and labels:
patients with CF = conditions: high doses, cited from earlier work
BLT1 receptor = target: T1, BLT1 receptor (Homo sapiens, UniProt Q15722); conditions: patients with stable CF lung disease, cited from earlier work
T1 construct: host or cells: human CF patients (endogenous receptor)

[1] = tested on: P. aeruginosa-infected mice; conditions: doses of 0.3 to 100 mg/kg; cited from earlier work

T1 sequence (Q15722 whole entry): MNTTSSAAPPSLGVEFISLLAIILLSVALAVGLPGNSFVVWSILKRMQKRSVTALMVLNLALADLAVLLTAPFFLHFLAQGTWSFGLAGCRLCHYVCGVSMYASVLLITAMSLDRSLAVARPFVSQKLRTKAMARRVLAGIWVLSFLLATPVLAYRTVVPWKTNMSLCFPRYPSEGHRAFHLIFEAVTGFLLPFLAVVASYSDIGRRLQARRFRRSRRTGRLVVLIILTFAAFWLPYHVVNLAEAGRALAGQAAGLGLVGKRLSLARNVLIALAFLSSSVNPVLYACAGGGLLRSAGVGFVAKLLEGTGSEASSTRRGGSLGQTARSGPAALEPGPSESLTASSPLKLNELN

## CC(C)Cc1ccc(C(C)C(=O)O)cc1 (stereo not drawn) [ibuprofen]
Patients with CF; children with CF
  survival: improves survival
Patients with CF
  lung function decline: slows lung function decline

## CCOC(=O)NC(=N)c1ccc(OCc2cccc(COc3ccc(C(C)(C)c4ccc(O)cc4)cc3)c2)cc1
BLT1 receptor
  serious adverse events leading to early termination of the trial: increase in respiratory serious adverse events
BLT1 receptor; listed as amelubant
  serious adverse events leading to early termination of the trial: increase in serious pulmonary AEs
[1]
  Mac-1 (CR3) expression: significantly down-regulated
  number of neutrophils in the lungs and the airways: reduced the number of neutrophils
